Laboratory results published in patent publication US12174190B2, “Combined markers for metastatic cancer and uses thereof” (Albert Einstein College of Medicine, priority 2017, dated 2024).

Experiments:
Assay type in all cases: in vivo, human
MenaINV = MenaINV gene expression in FNA biopsy samples by real-time RT-PCR before and after NAC with paclitaxel; conditions: FNA biopsies from 5 breast cancer patients, before vs after 2 weeks of NAC with paclitaxel; FIG. 5E
Procedure: (§1) FIG. 5A-5D. Neoadjuvant chemotherapy increases TMEM, MenaCalc and MenaINV scores in some breast cancer patients. Paclitaxel (and other cytotoxic chemotherapy) increases TMEM Score, MenaCalc and MenaINV expression in breast cancer patients treated with neoadjuvant chemotherapy (NAC). (A) Study design. (B) Individual TMEM scores of 20 patients before and after receiving NAC, which included weekly paclitaxel (80 mg/m^2×12 consecutive weeks) followed sequentially by dose-dense AC chemotherapy (doxorubicin 60 mg/m^2 and cyclophosphamide 600 mg/m^2 every 2 weeks×4 cycles, plus pegrastim 6 mg SC on day 2 of each cycle). Horizontal line; TMEM high-risk cutoff point. For each pair of bars, Pre-NAC scores are shown in the first bar in the pair and Post-NAC scores are shown in the second bar. […] (D) MenaCalc expression in fine needle aspiration (FNA) biopsies, as assessed by real-time RT-PCR from 4 patients before and after 2 doses of neo-adjuvant chemotherapy with paclitaxel. (E) MenaINV gene expression in FNA biopsy samples, as assessed by real-time RT-PCR, taken from 5 breast cancer patients before and after 2-weeks of receiving NAC with paclitaxel. […]
(§2) MenaCalc expression was determined in fine needle aspiration (FNA) biopsies, as assessed by real-time RT-PCR from 4 patients before and after 2 doses of neo-adjuvant chemotherapy with paclitaxel (see FIG. 5D). […]

[1] = tested on: TMEM (Tumor Microenvironment of Metastasis); assay: TMEM score in breast cancers before and after neoadjuvant chemotherapy (NAC); conditions: 20 breast cancer patients, before vs after NAC (weekly paclitaxel 80 mg/m^2 x 12 weeks followed by dose-dense AC); FIG. 5B-C
Procedure: as §1, with “point.” for “point. For each pair of bars, Pre-NAC scores are shown in the first bar in the pair and Post-NAC scores are shown in the second bar.”
Individual TMEM scores of 20 patients were determined before and after receiving NAC, which included weekly paclitaxel (80 mg/m^2×12 consecutive weeks) followed sequentially by dose-dense AC chemotherapy (doxorubicin 60 mg/m^2 and cyclophosphamide 600 mg/m^2 every 2 weeks×4 cycles, plus pegrastim 6 mg SC on day 2 of each cycle) (see FIG. 5B). […]

MenaCalc = MenaCalc expression in FNA biopsies by real-time RT-PCR before and after NAC with paclitaxel; conditions: FNA biopsies from 4 patients, before vs after 2 doses of neo-adjuvant paclitaxel; FIG. 5D
Procedure: as §1, §2

CC(=O)O[C@H]1C(=O)[C@@]2(C)[C@H]([C@H](OC(=O)c3ccccc3)[C@]3(O)C[C@H](OC(=O)[C@H](O)[C@@H](NC(=O)c4ccccc4)c4ccccc4)C(C)=C1C3(C)C)[C@]1(OC(C)=O)CO[C@@H]1C[C@@H]2O [paclitaxel]
increases: MenaINV expression (MenaINV) | TMEM Score [1] | MenaCalc expression (MenaCalc)
